Assay results published in US6107316A, “Method for treating protozoal infections” (priority 1998, dated 2000).

Tests used:
[1] = system: Cryptosporidium parvum; assay: growth inhibitory activity against C. parvum in host MDBKF5D2 cells (immunofluorescence); assay type: cell-based; details: Cryptosporidium parvum, 48 h
Protocol: Compounds were tested for in vitro growth inhibitory activity against C. parvum grown in host MDBKF5D2 cells and for toxicity towards the host cells as follows. […] To test for toxicity towards the host cells, the media containing test compound (200 μl) were introduced into two wells of a 96 well microtiter plate containing confluent MDBKF5D2 cell monolayers and two wells without monolayers, and incubated at 37° C. in an 8% carbon dioxide environment. After 48 hours, the tetrazolium salt MTS (Owen's solution) and phenazine methosulfate were added to each well at concentrations of 333 μg/ml and 25 μM, respectively. The plate was returned to the incubator in the dark to develop for 2 hours, then 100 μl of each supernatant was transferred to a new microtiter plate and read spectrophotometrically in a plate reader at a wavelength of 490 nm. Percent toxicity was calculated by subtracting the mean optical density (OD) of the drug supernatants from the OD of medium control supernatants (no drug), dividing by the OD of the medium control, and multiplying by 100. To test for growth inhibitory activity against C. parvum, 3×10^4 oocysts per well were incubated in mentioned concentrations of each drug at 37° C. (8% CO2) on confluent MDBKF5D2 cell monolayers in 96 well microtiter plates. After 48 hours, the level of infection in each well was determined by means of an immunofluorescence assay. Percent inhibition of growth was calculated by subtracting the mean parasite count in the wells containing test compound from the mean parasite count in the medium control wells (no test compound), dividing by the mean parasite count in the medium control wells, and multiplying by 100. Paromomycin was included in the test as a standard.

[2] = system: Encephalitozoon (Septata) intestinalis; assay: growth inhibitory activity against E. intestinalis grown on Vero cells (spore count); assay type: cell-based; details: 336 h, 1.0 μg/ml, spore number after 2 weeks, read-out: Growth (% of control)
Protocol: Compounds 2, 10 and 15 were tested for i,7 vitro growth inhibitory activity against E. intestinalis, grown on African green monkey kidney cells (Vero cells). Vero cells were grown in 25-cm^2 culture flasks at 37° C. in a humidified 5% carbon dioxide incubator. Cultures were maintained in minimal essential medium (Gibco BRL, Gaithersburg, Md., U.S.A.), supplemented with L-glutamine, Earle's salts, 5% heat-inactivated foetal calf serum (Hyclone Labs, Inc., U.S.A.), fungizone (2 μg/ml, Gibco BRL) and gentamicin (50 μg/ml, Gibco BRL). E. intestinalis spores were collected from the supernatant of an infected Vero cell culture and were used to infect normal cells to produce a fresh spore preparation for growth inhibition tests.
Growth inhibition tests were performed in 24-well culture plates. One ml of Vero cells (5×10^4 cells per ml) was placed in each well and the cells incubated for 12-15 hours at 37° C. The supernatant medium was then removed and replaced with 1 ml of medium containing 1.5-2.0×10^4 E. intestinalis spores per ml along with 1 μl of test compound dissolved in dimethylsulfoxide (DMSO) or DMSO alone for the control treatments without test compound. The plates were incubated at 37° C. and the medium was changed every 72 h along with fresh test compound in DMSO or DMSO alone (controls). After 2 weeks the supernatant was transferred from each well to a microcentiifuge tube, then concentrated by centrifugation with resuspension of the resulting E. intestinalis spore pellet in 300-500 μl fresh medium. The spore number in each sample was then determined by counting in a hemocytometer. The results in Table 11 show the effects of the test compounds on the number of spores and are expressed as a percentage of the spore number in the control treatment without test compound.

Compound	inhibition at 0.1 µM [1]	inhibition at 1 µM [1]	inhibition at 10 µM [1]	inhibition at 100 µM ([1]; 100 μM)	activity at 1 µg/mL [2]
CCC(C)(NC(=O)c1cc(Cl)c(N)c(Cl)c1)C(=O)CCl (centres unmarked) [Compound 1]	23.1%	29.2%	34.2%	81.1%	–
CCC(C)(NC(=O)c1cc(Cl)c(F)c(Cl)c1)C(=O)CCl (centres unmarked) [Compound 9]	1.8%	27.9%	32.8%	–	–
CCC(C)(NC(=O)c1cc(Cl)c(C)c(Cl)c1)C(=O)CCl (centres unmarked) [Compound 10]	–	–	–	–	20%
